Experimental data published in patent US12180143B1, “8-((4-hydroxy-3-methoxyphenyl)diazenyl)naphthalene-1,3-disulfonic acid as an antioxidant compound” (KING FAISAL UNIVERSITY, priority 2023, dated 2024).

Experiment: DPPH radical scavenging antioxidant test
Type: biochemical
Conditions: 517 nm; for Inhibition (radical scavenging inhibition): 0.2 mL DPPH (0.75 mM), compound 3 μM in ethanol, 30 min incubation in the dark
Description: The antioxidant properties of the 8-((4-hydroxy-3-methoxyphenyl)diazenyl) naphthalene-1,3-disulfonic acid were studied by adding 0.2 mL DPPH (0.75 mM)) to compound 8-((4-hydroxy-3-methoxyphenyl)diazenyl) naphthalene-1,3-disulfonic acid (III) (3 μM) in ethanol. After 30 min of incubation in the dark, the absorbance was read against a blank at 517 nm. Ascorbic acid (vitamin C) was used as standard antioxidants (positive control). A blank sample was prepared by 0.2 ml of DPPH in 3 mL ethanol. A negative control sample was run using ethanol instead of the sample. The radical scavenging inhibition was calculated using the following equation: […]

Row | SMILES | Inhibition (radical scavenging inhibition) [%] | antioxidant potential to vanish the DPPH radical distinctive colors, compared to vitamin C (DPPH in vitro test, vitamin C as positive control)
1 | COc1cc(/N=N/c2cccc3cc(S(=O)(=O)O)cc(S(=O)(=O)O)c23)ccc1O [Product III, 8-((4-hydroxy-3-methoxyphenyl)diazenyl) naphthalene-1,3-disulfonic acid] | 48 | high potential as an antioxidant compared to vitamin C
2 | O=C1O[C@H]([C@@H](O)CO)C(O)=C1O [vit c, Ascorbic acid, reference compound] | 74 | –
